Assay results published in ChEMBL document CHEMBL1201862, “PubChem BioAssay data set” (2004).
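Cells were grown in 96-well plates and exposed to each compound for 48 hours at five concentrations; endpoints were interpolated linearly between bracketing concentrations, or set to the highest concentration if not reached. Here, GI50 denotes the concentration required for 50% inhibition of growth.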 Active and inactive are the calls of the source. No stated cut-off is given here; in the data, active = GI50 up to about 1.1 µM and inactive = higher.

Experiments:
Assay in all cases: inhibition of tumour cell growth, NCI panel, 48 h
MOLT-4 = test system: MOLT-4
PC-3 = test system: PC-3
HCT-116 = test system: HCT-116
M14 = test system: M14
Malme-3M = test system: Malme-3M
MDA-N = test system: MDA-N
EKVX = test system: EKVX
CAKI-1 = test system: CAKI-1
OVCAR-4 = test system: OVCAR-4
SK-OV-3 = test system: SK-OV-3
SNB-75 = test system: SNB-75
A549 = test system: A549
Hs-578T = test system: Hs-578T
A498 = test system: A498
UACC-62 = test system: UACC-62
SNB-19 = test system: SNB-19
NCI-H226 = test system: NCI-H226
SW-620 = test system: SW-620
SF-268 = test system: SF-268
BT-549 = test system: BT-549
SK-MEL-2 = test system: SK-MEL-2
COLO 205 = test system: COLO 205
OVCAR-3 = test system: OVCAR-3
SN12C = test system: SN12C
T47D = test system: T47D
SF-539 = test system: SF-539
OVCAR-8 = test system: OVCAR-8
HT-29 = test system: HT-29
HL-60 = test system: HL-60
DU-145 = test system: DU-145
OVCAR-5 = test system: OVCAR-5
MDA-MB-435 = test system: MDA-MB-435
SK-MEL-28 = test system: SK-MEL-28
RPMI-8226 = test system: RPMI-8226
HOP-92 = test system: HOP-92
UACC-257 = test system: UACC-257
HCT-15 = test system: HCT-15
NCI/ADR-RES = test system: NCI/ADR-RES
MDA-MB-231 = test system: MDA-MB-231
RXF 393 = test system: RXF 393
NCI-H522 = test system: NCI-H522
HCC 2998 = test system: HCC 2998
CCRF-CEM = test system: CCRF-CEM
KM12 = test system: KM12
NCI-H460 = test system: NCI-H460
IGROV-1 = test system: IGROV-1
SR = test system: SR
UO-31 = test system: UO-31
K562 = test system: K562
U-251 = test system: U-251
TK-10 = test system: TK-10
SF-295 = test system: SF-295
SK-MEL-5 = test system: SK-MEL-5
LOX IMVI = test system: LOX IMVI
MCF7 = test system: MCF7
NCI-H23 = test system: NCI-H23
786-0 = test system: 786-0
HOP-62 = test system: HOP-62
ACHN = test system: ACHN

In the case of `Cc1ccc(/N=C2N=C(Cl)/C(=C\c3ccccc3)N\2)cc1`, the GI50 (MOLT-4) is reported as 2.33 µM (inactive), the GI50 (PC-3) is reported as > 79.3 µM (inactive) and the GI50 (HCT-116) is reported as > 100 µM (inactive). The GI50 (M14) was > 100 µM (inactive), the GI50 (Malme-3M) was > 100 µM (inactive) and the GI50 (MDA-N) was 51.9 µM (inactive). The GI50 (EKVX) was > 100 µM (inactive), the GI50 (CAKI-1) was > 100 µM (inactive) and the GI50 (OVCAR-4) was 65.2 µM (inactive). For the same molecule, the GI50 (SK-OV-3) was > 100 µM (inactive), the GI50 (SNB-75) was > 100 µM (inactive) and the GI50 (A549) was > 100 µM (inactive). The GI50 (Hs-578T) was > 100 µM (inactive), the GI50 (A498) was > 100 µM (inactive) and the GI50 (UACC-62) was 4.26 µM (inactive). The GI50 (SNB-19) was > 100 µM (inactive), the GI50 (NCI-H226) was > 100 µM (inactive) and the GI50 (SW-620) was > 25 µM (inactive). For the same molecule, the GI50 (SF-268) was > 100 µM (inactive), the GI50 (BT-549) was > 100 µM (inactive) and the GI50 (SK-MEL-2) was > 100 µM (inactive). For the same molecule, the GI50 (COLO 205) was 85.3 µM (inactive), the GI50 (OVCAR-3) was > 100 µM (inactive) and the GI50 (SN12C) was > 100 µM (inactive). The GI50 (T47D) was 88.7 µM (inactive), the GI50 (SF-539) was > 100 µM (inactive) and the GI50 (OVCAR-8) was > 25.8 µM (inactive). The GI50 (HT-29) was > 100 µM (inactive), the GI50 (HL-60) was 3.9 µM (inactive) and the GI50 (DU-145) was 64.6 µM (inactive). For the same molecule, the GI50 (OVCAR-5) was > 100 µM (inactive), the GI50 (MDA-MB-435) was 30.6 µM (inactive) and the GI50 (SK-MEL-28) was > 100 µM (inactive). For the same molecule, the GI50 (RPMI-8226) was 5.11 µM (inactive), the GI50 (HOP-92) was > 100 µM (inactive) and the GI50 (UACC-257) was > 76.6 µM (inactive). For the same molecule, the GI50 (HCT-15) was 2.88 µM, the GI50 (NCI/ADR-RES) was > 38.5 µM (inactive) and the GI50 (MDA-MB-231) was > 100 µM (inactive). For the same molecule, the GI50 (RXF 393) was > 100 µM (inactive), the GI50 (NCI-H522) was > 100 µM (inactive) and the GI50 (HCC 2998) was 12.2 µM (inactive). The GI50 (CCRF-CEM) was > 37.3 µM (inactive), the GI50 (KM12) was > 22.6 µM (inactive) and the GI50 (NCI-H460) was 78 µM (inactive). The GI50 (IGROV-1) was > 100 µM (inactive), the GI50 (SR) was 0.625 µM (active) and the GI50 (UO-31) was 79.1 µM (inactive). The GI50 (K562) was 5.52 µM (inactive), the GI50 (U-251) was > 100 µM (inactive) and the GI50 (TK-10) was > 100 µM (inactive). The GI50 (SF-295) was > 79.3 µM (inactive), the GI50 (SK-MEL-5) was 48.8 µM (inactive) and the GI50 (LOX IMVI) was 3.76 µM (inactive). The GI50 (MCF7) was > 100 µM (inactive), the GI50 (NCI-H23) was > 100 µM (inactive) and the GI50 (786-0) was > 100 µM (inactive). For the same molecule, the GI50 (HOP-62) was > 100 µM (inactive).

For `O=C(/C=C/c1ccccc1)N1CCCCC1`, the GI50 (MOLT-4) was > 100 µM (inactive), the GI50 (PC-3) was > 100 µM (inactive) and the GI50 (HCT-116) was > 100 µM (inactive). For the same molecule, the GI50 (M14) was > 100 µM (inactive), the GI50 (MDA-N) was > 100 µM (inactive) and the GI50 (EKVX) was > 100 µM (inactive). The GI50 (CAKI-1) was > 100 µM (inactive), the GI50 (OVCAR-4) was > 100 µM (inactive) and the GI50 (SK-OV-3) was > 100 µM (inactive). The GI50 (SNB-75) was 15.2 µM (inactive), the GI50 (A549) was > 100 µM (inactive) and the GI50 (Hs-578T) was > 100 µM (inactive). The GI50 (A498) was > 100 µM (inactive), the GI50 (UACC-62) was > 100 µM (inactive) and the GI50 (SNB-19) was > 100 µM (inactive). For the same molecule, the GI50 (NCI-H226) was > 100 µM (inactive), the GI50 (SW-620) was > 100 µM (inactive) and the GI50 (SF-268) was > 100 µM (inactive). For the same molecule, the GI50 (BT-549) was > 100 µM (inactive), the GI50 (SK-MEL-2) was > 100 µM (inactive) and the GI50 (COLO 205) was > 100 µM (inactive). For the same molecule, the GI50 (OVCAR-3) was > 100 µM (inactive), the GI50 (SN12C) was > 100 µM (inactive) and the GI50 (T47D) was > 100 µM (inactive). The GI50 (SF-539) was > 100 µM (inactive), the GI50 (OVCAR-8) was > 100 µM (inactive) and the GI50 (HT-29) was > 100 µM (inactive). For the same molecule, the GI50 (HL-60) was > 100 µM (inactive), the GI50 (DU-145) was > 100 µM (inactive) and the GI50 (OVCAR-5) was > 100 µM (inactive). The GI50 (MDA-MB-435) was > 100 µM (inactive), the GI50 (SK-MEL-28) was > 100 µM (inactive) and the GI50 (RPMI-8226) was > 100 µM (inactive). For the same molecule, the GI50 (HOP-92) was > 100 µM (inactive), the GI50 (UACC-257) was > 100 µM (inactive) and the GI50 (HCT-15) was greater than 100 µM. For the same molecule, the GI50 (NCI/ADR-RES) was > 100 µM (inactive), the GI50 (MDA-MB-231) was > 100 µM (inactive) and the GI50 (RXF 393) was > 100 µM (inactive). The GI50 (NCI-H522) was > 100 µM (inactive), the GI50 (HCC 2998) was > 100 µM (inactive) and the GI50 (CCRF-CEM) was > 100 µM (inactive). For the same molecule, the GI50 (KM12) was > 100 µM (inactive), the GI50 (NCI-H460) was > 100 µM (inactive) and the GI50 (IGROV-1) was > 100 µM (inactive). For the same molecule, the GI50 (SR) was > 100 µM (inactive), the GI50 (UO-31) was > 100 µM (inactive) and the GI50 (K562) was > 100 µM (inactive). The GI50 (U-251) was > 100 µM (inactive), the GI50 (TK-10) was > 100 µM (inactive) and the GI50 (SF-295) was > 100 µM (inactive). The GI50 (SK-MEL-5) was > 100 µM (inactive), the GI50 (LOX IMVI) was > 100 µM (inactive) and the GI50 (MCF7) was > 100 µM (inactive). For the same molecule, the GI50 (NCI-H23) was > 100 µM (inactive), the GI50 (786-0) was > 100 µM (inactive) and the GI50 (HOP-62) was > 100 µM (inactive). The GI50 (ACHN) was > 100 µM (inactive).

With `Cc1cc(O)c(C=O)c2c1C(=O)Oc1c(CO)c(O)c3c(c1O2)C(O)OC3=O` (stereo not drawn) [SLAZINIC ACID] the GI50 (MOLT-4) was 22.1 µM (inactive), the GI50 (PC-3) was > 100 µM (inactive) and the GI50 (HCT-116) was 69.8 µM (inactive). The GI50 (M14) was 61.4 µM (inactive), the GI50 (Malme-3M) was 41 µM (inactive) and the GI50 (MDA-N) was 66.2 µM (inactive). For the same molecule, the GI50 (EKVX) was > 100 µM (inactive), the GI50 (CAKI-1) was 61.5 µM (inactive) and the GI50 (OVCAR-4) was 27.5 µM (inactive). The GI50 (SK-OV-3) was 64 µM (inactive), the GI50 (SNB-75) was 24.1 µM (inactive) and the GI50 (A549) was > 100 µM (inactive). For the same molecule, the GI50 (Hs-578T) was 31.6 µM (inactive), the GI50 (A498) was 58.3 µM (inactive) and the GI50 (UACC-62) was 59 µM (inactive). The GI50 (SNB-19) was 21.4 µM (inactive), the GI50 (NCI-H226) was 38.8 µM (inactive) and the GI50 (SW-620) was 60 µM (inactive). The GI50 (SF-268) was 34.4 µM (inactive), the GI50 (BT-549) was > 100 µM (inactive) and the GI50 (SK-MEL-2) was 97.1 µM (inactive). For the same molecule, the GI50 (COLO 205) was > 100 µM (inactive), the GI50 (OVCAR-3) was 77.1 µM (inactive) and the GI50 (SN12C) was > 100 µM (inactive). The GI50 (T47D) was 54.5 µM (inactive), the GI50 (SF-539) was > 100 µM (inactive) and the GI50 (OVCAR-8) was 52.7 µM (inactive). For the same molecule, the GI50 (HT-29) was > 100 µM (inactive), the GI50 (HL-60) was 30.1 µM (inactive) and the GI50 (DU-145) was > 100 µM (inactive). The GI50 (OVCAR-5) was > 100 µM (inactive), the GI50 (MDA-MB-435) was 39.6 µM (inactive) and the GI50 (SK-MEL-28) was 91.8 µM (inactive). The GI50 (RPMI-8226) was 17.4 µM (inactive), the GI50 (HOP-92) was 50.6 µM (inactive) and the GI50 (UACC-257) was > 100 µM (inactive). The GI50 (HCT-15) was 55.2 µM, the GI50 (NCI/ADR-RES) was 44.7 µM (inactive) and the GI50 (MDA-MB-231) was > 100 µM (inactive). The GI50 (RXF 393) was 87.5 µM (inactive), the GI50 (NCI-H522) was 42.3 µM (inactive) and the GI50 (HCC 2998) was > 100 µM (inactive). The GI50 (CCRF-CEM) was 43 µM (inactive), the GI50 (KM12) was 36.7 µM (inactive) and the GI50 (IGROV-1) was > 100 µM (inactive). For the same molecule, the GI50 (SR) was 22.6 µM (inactive), the GI50 (UO-31) was 34.5 µM (inactive) and the GI50 (U-251) was 60.5 µM (inactive). The GI50 (TK-10) was > 100 µM (inactive), the GI50 (SF-295) was > 100 µM (inactive) and the GI50 (SK-MEL-5) was 34.3 µM (inactive). For the same molecule, the GI50 (LOX IMVI) was 82.2 µM (inactive), the GI50 (MCF7) was 24.5 µM (inactive) and the GI50 (NCI-H23) was > 100 µM (inactive). For the same molecule, the GI50 (786-0) was > 100 µM (inactive), the GI50 (HOP-62) was > 100 µM (inactive) and the GI50 (ACHN) was 40.1 µM (inactive).
